The source made the active and inactive calls. No cut-off for these calls is given here.

Assay [1] relates to Rhizoctonia solani. The assay can be described thus: Fungicidal activity against Rhizoctonia solani infected in 24 hr compound pre-treated Oryza sativa cv. Chukyoasahi assessed as disease control measured after 10 days. The assay is classed as functional.
For assay [2], the system named is Podosphaera fuliginea. Description: Fungicidal activity against Podosphaera fuliginea infected in 24 hr compound pre-treated cucumber plant assessed as disease control measured after 10 days. In kind it is functional.
Assay [3] has as its system Pyricularia oryzae. The assay can be described thus: Fungicidal activity against Magnaporthe oryzae infected in 24 hr compound pre-treated Oryza sativa cv. Chukyoasahi assessed as disease control measured after 10 days. In kind it is functional.
In assay [4] the test system is Botrytis cinerea. The assay can be described thus: Fungicidal activity against Botryotinia fuckeliana assessed as mitochondrial uncoupling activity. The assay is classed as functional, organism-based.
Assay [5] relates to Pyricularia oryzae. Description: Fungicidal activity against Magnaporthe oryzae assessed as mitochondrial uncoupling activity. In kind it is functional, organism-based.
Assay [6] deals with Rhizoctonia solani. The assay can be described thus: Fungicidal activity against Rhizoctonia solani assessed as SH-inhibition. In kind it is functional, organism-based.
Assay [7] relates to Podosphaera fuliginea. Description: Fungicidal activity against Podosphaera fuliginea assessed as SH-inhibition. The assay is classed as functional, organism-based.
Assay [8] relates to Botrytis cinerea. Description: Fungicidal activity against Botryotinia fuckeliana assessed as SH-inhibition. The assay is classed as functional, organism-based.
Assay [9] relates to Pyricularia oryzae. The assay can be described thus: Fungicidal activity against Magnaporthe oryzae assessed as SH-inhibition. The assay is classed as functional, organism-based.
For another assay, the species on record is Rattus norvegicus. Description: Inhibition of mitochondrial uncoupling in Rattus norvegicus (rat). The assay is classed as functional, organism-based.
The subject of assay [10] is Rhizoctonia solani. The assay can be described thus: Fungicidal activity against Rhizoctonia solani assessed as mitochondrial uncoupling activity. In kind it is functional, organism-based.
Assay [11] deals with Podosphaera fuliginea. Description: Fungicidal activity against Podosphaera fuliginea assessed as mitochondrial uncoupling activity. In kind it is functional, organism-based.

On to `CCCOc1c(C(F)(F)F)cc([N+](=O)[O-])c(Nc2ncc(C(F)(F)F)cc2Cl)c1[N+](=O)[O-]`, for which the I90 is recorded as 16 ppm in the assay with Rhizoctonia solani [1], more than 500 ppm with Podosphaera fuliginea [2] and 63 ppm with Pyricularia oryzae [3].
As to `CC(C)COc1c(C(F)(F)F)cc([N+](=O)[O-])c(Nc2ncc(C(F)(F)F)cc2Cl)c1[N+](=O)[O-]`, the figures for the I90 in the assay on Rhizoctonia solani [1], in the assay on Podosphaera fuliginea [2] and in the assay with Pyricularia oryzae [3] were 63 ppm, more than 500 ppm and more than 500 ppm, respectively.
On to `CCOc1c(C(F)(F)F)cc([N+](=O)[O-])c(Nc2ncc(C(F)(F)F)cc2Cl)c1[N+](=O)[O-]`, for which the I90 in the assay with Rhizoctonia solani [1], in the assay on Podosphaera fuliginea [2] and in the assay with Pyricularia oryzae [3] was 16 ppm in each case.
In the case of `O=[N+]([O-])c1cc(C(F)(F)F)c(I)c([N+](=O)[O-])c1Nc1ncc(C(F)(F)F)cc1Cl`, the figures for the I90 with Rhizoctonia solani [1], with Podosphaera fuliginea [2] and in the assay with Pyricularia oryzae [3] were more than 500 ppm, more than 500 ppm and 16 ppm, respectively.
Regarding `O=[N+]([O-])c1cc(C(F)(F)F)c(Br)c([N+](=O)[O-])c1Nc1ncc(C(F)(F)F)cc1Cl`, the I90 in the assay on Rhizoctonia solani [1] amounted to 63 ppm; with Podosphaera fuliginea [2] it was 63 ppm; in the assay with Pyricularia oryzae [3] it was 16 ppm.
On to `CCCCOc1c(C(F)(F)F)cc([N+](=O)[O-])c(Nc2ncc(C(F)(F)F)cc2Cl)c1[N+](=O)[O-]`, for which the I90 with Rhizoctonia solani [1], in the assay on Podosphaera fuliginea [2] and with Pyricularia oryzae [3] was more than 500 ppm each time.
As to `O=[N+]([O-])c1cc(C(F)(F)F)c(Cl)c([N+](=O)[O-])c1Nc1ncc(C(F)(F)F)cc1Cl` [FLUAZINAM], the outcome in the assay with Botrytis cinerea [4] and in the assay on Podosphaera fuliginea [7] was inactive. The result in the assay with Pyricularia oryzae [5], in the assay with Rhizoctonia solani [6], with Botrytis cinerea [8], in the assay on Pyricularia oryzae [9], in the assay filed under Rattus norvegicus and in the assay with Rhizoctonia solani [10] was Active. For the same compound, the result with Podosphaera fuliginea [11] was Active. Moreover, the I90 was 63 ppm in the assay on Podosphaera fuliginea [2] and less than 16 ppm in the assay on Pyricularia oryzae [3].
As for `COc1c(C(F)(F)F)cc([N+](=O)[O-])c(Nc2ncc(C(F)(F)F)cc2Cl)c1[N+](=O)[O-]`, the I90 is given as 16 ppm in the assay on Rhizoctonia solani [1], 63 ppm with Podosphaera fuliginea [2] and less than 16 ppm in the assay with Pyricularia oryzae [3].
In the same order, the values of `Nc1c(C(F)(F)F)cc([N+](=O)[O-])c(Nc2ncc(C(F)(F)F)cc2Cl)c1[N+](=O)[O-]` are more than 500 ppm, more than 500 ppm and more than 500 ppm.
For `O=[N+]([O-])c1cc(C(F)(F)F)c(OCC(F)(F)F)c([N+](=O)[O-])c1Nc1ncc(C(F)(F)F)cc1Cl` the same measures were 63 ppm, 16 ppm and more than 500 ppm.
For `CSc1c(C(F)(F)F)cc([N+](=O)[O-])c(Nc2ncc(C(F)(F)F)cc2Cl)c1[N+](=O)[O-]` the same measures were 16 ppm, 16 ppm and less than 16 ppm.
Consider `C[S+]([O-])c1c(C(F)(F)F)cc([N+](=O)[O-])c(Nc2ncc(C(F)(F)F)cc2Cl)c1[N+](=O)[O-]` (centres undefined), for which the I90 is on record as more than 500 ppm in the assay on Rhizoctonia solani [1], more than 500 ppm in the assay on Podosphaera fuliginea [2] and 63 ppm with Pyricularia oryzae [3].

Source of the values: ChEMBL document CHEMBL3045201, “Quantitative Structure-Activity Relationships of Fluazinam and Related Fungicidal N-phenylpyridinamines” (1996).
